Laboratory results: patent US7030139B2, “Compounds” (AstraZeneca AB, priority 2001, dated 2006)
Like-named read-outs stand apart in the source and are kept apart here.

What was measured:
hCB2 [1] = target: T1, hCB2 (Homo sapiens, UniProt P34972); experiment: hCB2 receptor binding (3H-CP55,940 displacement, membranes)
T1 construct: purchased BioSignal

hCB2 [2] = target: T1, hCB2; experiment: hCB2 GTPγS binding; type: biochemical
hCB2-Sf9 = target: T2, hCB2-Sf9 (Homo sapiens, UniProt P34972); experiment: Ki hCB2-Sf9 binding (compounds made in a plate); conditions: Table 2, printed in the IC50 (nM) column; n = 2; measured from 2 compounds made in a plate
T2 construct: host or cells: Sf9 (inferred from the head 'hCB2-Sf9')
T2 sequence (P34972 whole entry): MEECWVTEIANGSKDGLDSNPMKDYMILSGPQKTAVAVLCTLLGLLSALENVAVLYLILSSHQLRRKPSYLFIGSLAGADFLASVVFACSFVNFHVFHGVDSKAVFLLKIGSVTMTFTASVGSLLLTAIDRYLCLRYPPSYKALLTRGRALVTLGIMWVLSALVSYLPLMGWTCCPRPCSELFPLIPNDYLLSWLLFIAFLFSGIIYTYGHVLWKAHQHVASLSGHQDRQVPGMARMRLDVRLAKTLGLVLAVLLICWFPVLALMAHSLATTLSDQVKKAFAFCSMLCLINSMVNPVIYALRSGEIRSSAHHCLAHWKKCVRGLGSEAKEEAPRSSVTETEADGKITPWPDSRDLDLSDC

T1 sequence (P34972 whole entry): as above

CCOc1ccc(Cc2nc3cc(N(C)C(=O)CC(C)C)ccc3n2Cc2ccsc2)cc1 [Example 47, N-[2-[(4-Ethoxyphenyl)methyl]-1-(3-thienylmethyl)1H-benzimidazol-5-yl]-N,3-dimethyl-butanamide]
IC50 (hCB2 [1]; hCB2 IC50 (nM)): 3.3 nM
EC50 (hCB2 [2]): 1.4 nM
Emax (hCB2 [2]): 70%

CCOc1ccc(C(C)c2nc3cc(N(C)C(=O)NC(C)C)ccc3n2CC2CC2)cc1 (racemic) [Example 53, (rac)-N-[1-(Cyclopropylmethyl)-2-[1-(4-ethoxyphenyl)ethyl]1H-benzimidazol-5-yl]-N-methyl-N′-(1-methylethyl)-urea]
IC50 (hCB2 [1]; hCB2 IC50 (nM)): 36 nM
EC50 (hCB2 [2]): 6.7 nM
Emax (hCB2 [2]): 46%

CCOc1ccc(C(O)c2nc3cc(C(=O)N(CC)CC)ccc3n2CCC(C)C)cc1 (stereo not shown) [Example 46, 2-[(4-Ethoxyphenyl)hydroxymethyl]-N,N-diethyl-(3-methylbutyl)-1H-benzimidazole-5-carboxamide]
IC50 (hCB2 [1]; hCB2 IC50 (nM)): 100 nM
EC50 (hCB2 [2]): 69 nM
Emax (hCB2 [2]): 70%

CCOc1ccc(Cc2nc3cc(C(=O)N(CC)CC)cnc3n2Cc2ccc([N+](=O)[O-])s2)cc1 [Example 57, 2-[(4-Ethoxyphenyl)methyl]-N,N-diethyl-3-[(5-nitro-2-thienyl)methyl]-3H-imidazo[4,5-b]pyridine-6-carboxamide]
IC50 (hCB2 [1]; hCB2 IC50 (nM)): 9.5 nM
EC50 (hCB2 [2]): 2.8 nM
Emax (hCB2 [2]): 72%

CCOc1ccc(Cc2nc3cc(N(C)C(=O)CC(C)C)ccc3n2Cc2ccc(COC(C)=O)o2)cc1 [Example 49, N-[1-[[5-[(Acetyloxy)methyl]-2-furanyl]methyl]-2-[(4-ethoxyphenyl)methyl]-1H-benzimidazol-5-yl]-N,3-dimethyl-butanamide]
IC50 (hCB2 [1]; hCB2 IC50 (nM)): 32 nM
EC50 (hCB2 [2]): 6.8 nM
Emax (hCB2 [2]): 67%

CCOc1ccc(C(C)c2nc3cc(N(C)C(=O)NC(C)C)ccc3n2CC2CC2)cc1 (single isomer, unassigned; (-)) [Example 54, (−)-N-[1-(Cyclopropylmethyl)-2-[1-(4-ethoxyphenyl)ethyl]-1H-benzimidazol-5-yl]-N-methyl-N′-(1-methylethyl)-urea]
IC50 (hCB2 [1]; hCB2 IC50 (nM)): 15.5 nM
EC50 (hCB2 [2]): 3.4 nM
Emax (hCB2 [2]): 66%

CCOc1ccc(Cc2nc3cc(C(=O)N(CC)CC)ccc3n2CCC(=O)OC)cc1 [Example 5, Methyl 3-[5-[(diethylamino)carbonyl]-2-(4-ethoxybenzyl)-1H-benzimidazol-1-yl]propanoate]
Ki (hCB2 [1]): 142 nM
EC50 (hCB2 [2]): 65 nM
Emax (hCB2 [2]; read-out: % Emax, hCB2): 53%

CCOc1ccc(Cc2nc3cc(NC(=O)OC)ccc3n2CC2CC2)cc1 [Example 26, Methyl-1-(cyclopropylmethyl)-2-(4-ethoxybenzyl)-1H-benzimidazol-5-yl carbamate]
% Emax, hCB2 (hCB2 [2]): 295(41%)
EC50 (hCB2 [2]; read-out: EC50, hCB2, nM): 295 nM

CCOc1ccc(Cc2nc3cc(C(=O)N(CC)CC)ccc3n2Cc2ccsc2)cc1 [Example 40, 2-[(4-Ethoxyphenyl)methyl]-N,N-diethyl-1-(3-thienylmethyl)-1H-benzimidazole-5-carboxamide]
IC50 (hCB2 [1]; hCB2 IC50 (nM)): 2.8 nM
EC50 (hCB2 [2]): 1.2 nM
Emax (hCB2 [2]): 74%

CCOc1ccc(Cc2nc3cc(N(C)C(=O)NC(C)C)cnc3n2CC2CC2)cc1 [Example 60, N-[3-(Cyclopropylmethyl)-2-[(4-ethoxyphenyl)methyl]-3H-imidazo[4,5-b]pyridin-6-yl]-N-methyl-N′-(1-methylethyl)-urea]
IC50 (hCB2 [1]; read-out: hCB2 IC50): 970 nM

CCOc1ccc(Cc2nc3cc(C(=O)N(CC)CC)ccc3n2C[C@@H]2CCCO2)cc1 [Example 42]
IC50 (hCB2 [1]; hCB2 IC50 (nM)): 23 nM
EC50 (hCB2 [2]): 5 nM
Emax (hCB2 [2]): 76%

CCOc1ccc(C(C)c2nc3cc(N(C)C(=O)NC(C)C)ccc3n2CC2CCCCC2)cc1 (stereo not shown) [Example 56, N-[1-(Cyclohexylmethyl)-2-[1-(4-ethoxyphenyl)ethyl]-1H-benzimidazol-5-yl]-N-methyl-N′-(1-methylethyl)-urea]
IC50 (hCB2 [1]; hCB2 IC50 (nM)): 5.4 nM
EC50 (hCB2 [2]): 1.5 nM
Emax (hCB2 [2]): 88%

CCOc1ccc(Cc2nc3cc(C(=O)N(CC)CC)ccc3n2CC2CC2)cn1 [Example 13, 1-(Cyclopropylmethyl)-2-[(6-ethoxy-3-pyridinyl)methyl]-N,N-diethyl-1H-benzimidazole-5-carboxamide]
Ki (hCB2 [1]): 133 nM
EC50 (hCB2 [2]): 97 nM
Emax (hCB2 [2]; read-out: % Emax, hCB2): 93%

CCOc1ccc(Cc2nc3cc(N(C)S(=O)(=O)c4ccccc4)cnc3n2CC2CC2)cc1 [Example 61, N-[3-(Cyclopropylmethyl)-2-[(4-ethoxyphenyl)methyl]-3H-imidazo[4,5-b]pyridin-6-yl]-N-methyl-benzenesulfonamide]
Ki (hCB2-Sf9): 11.4 nM

CCOc1ccc(C(C)c2nc3cc(N(C)C(=O)NC(C)C)ccc3n2CC2CC2)cc1 (single isomer, unassigned; (+)) [Example 55, (+)-N-[1-(Cyclopropylmethyl)-2-[1-(4-ethoxyphenyl)ethyl]-1H-benzimidazol-5-yl]-N-methyl-N′-(1-methylethyl)-urea]
IC50 (hCB2 [1]; hCB2 IC50 (nM)): 715 nM

CCOc1ccc(Cc2nc3cc(N(C)S(=O)(=O)c4cccs4)cnc3n2CC2CC2)cc1 [Example 62, N-[3-(Cyclopropylmethyl)-2-[(4-ethoxyphenyl)methyl]-3H-imidazo[4,5-b]pyridin-6-yl]-N-methyl-2-thiophenesulfonamide]
Ki (hCB2-Sf9): 4.5 nM

CCOc1ccc(C(C)c2nc3cc(N(C)C(=O)CC(C)C)ccc3n2CC2CC2)cc1 (stereo not shown) [Example 52, N-[1-(Cyclopropylmethyl)-2-[1-(4-ethoxyphenyl)ethyl]-1H-benzimidazol-5-yl]-N,3-dimethyl-butanamide]
Emax (hCB2 [2]): 41%

C=CCNc1ccc2c(c1)nc(Cc1ccc(OCC)cc1)n2CC1CC1 [Example 33, N-Allyl-1-(cyclopropylmethyl)2-(4-ethoxybenzyl)-1H-benzimidazol-5-amine]
Ki (hCB2 [1]; Table 1, human CB2 membranes, 3H-CP55,940, read-out: Ki(hCB2)): 308 nM
EC50 (hCB2 [2]; Table 1, GTPγS binding, human CB2 membranes, read-out: EC50, hCB2, nM): 146 nM
Emax (hCB2 [2]; Table 1, GTPγS binding, maximal stimulated binding defined with 1 μM Win 55,212-2, read-out: % Emax, hCB2): 54%

CCOc1ccc(Cc2nc3cc(N(C)C(=O)CC(C)C)cnc3n2CC2CC2)cc1 [Example 59, N-[3-(Cyclopropylmethyl)-2-[(4-ethoxyphenyl)methyl]-3H-imidazo[4,5-b]pyridin-6-yl]-N,3-dimethyl-butanamide]
IC50 (hCB2 [1]; hCB2 IC50 (nM)): 328 nM
EC50 (hCB2 [2]): 64 nM
Emax (hCB2 [2]): 67%

CCOc1ccc(Nc2nc3cc(C(=O)N(CC)CC)ccc3n2CCC(C)C)cc1 [Example 39, 2-(4-Ethoxyanilino)-N,N-diethyl-1-isopentyl-1H-benzimidazole-5-carboxamide]
Ki (hCB2 [1]): 98 nM
EC50 (hCB2 [2]): 64 nM
Emax (hCB2 [2]; read-out: % Emax, hCB2): 64%

CCOc1ccc(Cc2nc3cc(CN4CCOCC4)ccc3n2CC2CC2)cc1 [Example 24, 1-(Cyclopropylmethyl)-2-(4-ethoxybenzyl)-5-(4-morpholinylmethyl)-1H-benzimidazole]
Ki (hCB2 [1]): 178 nM
EC50 (hCB2 [2]): 81 nM
Emax (hCB2 [2]; read-out: % Emax, hCB2): 62%
